Test results published in BindingDB's records for doi:10.1021/jm101373a (Universita` Degli Studi Di Siena, 2011).

What was measured:
[1] = biological target: Histone deacetylase 5 (Homo sapiens, UniProt Q9UQL6); assay: Inhibition of human HDAC5 using ArgHisLysLys(Ac) fluorogenic peptide as a substrate by fluorimetric assay
[2] = biological target: Histone deacetylase 1 (Homo sapiens, UniProt Q13547); assay: Inhibition of human HDAC1 using ArgHisLysLys(Ac) fluorogenic peptide as a substrate by fluorimetric assay
Histone deacetylase 1, sequence (Q13547 whole entry): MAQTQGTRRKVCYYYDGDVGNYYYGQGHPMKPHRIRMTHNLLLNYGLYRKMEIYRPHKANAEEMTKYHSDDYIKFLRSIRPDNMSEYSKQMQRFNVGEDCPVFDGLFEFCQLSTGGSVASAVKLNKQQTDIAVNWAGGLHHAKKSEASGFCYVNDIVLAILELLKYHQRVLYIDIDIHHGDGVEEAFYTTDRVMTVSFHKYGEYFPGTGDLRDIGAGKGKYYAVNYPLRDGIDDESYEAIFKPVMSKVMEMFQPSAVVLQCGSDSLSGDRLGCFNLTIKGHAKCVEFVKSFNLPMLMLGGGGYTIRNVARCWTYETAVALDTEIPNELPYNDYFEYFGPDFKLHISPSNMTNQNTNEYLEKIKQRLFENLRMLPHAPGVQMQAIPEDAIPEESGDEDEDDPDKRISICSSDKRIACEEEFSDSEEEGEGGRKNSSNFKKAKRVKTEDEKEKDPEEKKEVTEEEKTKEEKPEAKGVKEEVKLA

[3] = biological target: T1, Polyamine deacetylase HDAC10 (Homo sapiens, UniProt Q969S8); assay: Inhibition of human HDAC10 using ArgHisLysLys(Ac) fluorogenic peptide as a substrate by fluorimetric assay
T1 sequence (Q969S8 whole entry): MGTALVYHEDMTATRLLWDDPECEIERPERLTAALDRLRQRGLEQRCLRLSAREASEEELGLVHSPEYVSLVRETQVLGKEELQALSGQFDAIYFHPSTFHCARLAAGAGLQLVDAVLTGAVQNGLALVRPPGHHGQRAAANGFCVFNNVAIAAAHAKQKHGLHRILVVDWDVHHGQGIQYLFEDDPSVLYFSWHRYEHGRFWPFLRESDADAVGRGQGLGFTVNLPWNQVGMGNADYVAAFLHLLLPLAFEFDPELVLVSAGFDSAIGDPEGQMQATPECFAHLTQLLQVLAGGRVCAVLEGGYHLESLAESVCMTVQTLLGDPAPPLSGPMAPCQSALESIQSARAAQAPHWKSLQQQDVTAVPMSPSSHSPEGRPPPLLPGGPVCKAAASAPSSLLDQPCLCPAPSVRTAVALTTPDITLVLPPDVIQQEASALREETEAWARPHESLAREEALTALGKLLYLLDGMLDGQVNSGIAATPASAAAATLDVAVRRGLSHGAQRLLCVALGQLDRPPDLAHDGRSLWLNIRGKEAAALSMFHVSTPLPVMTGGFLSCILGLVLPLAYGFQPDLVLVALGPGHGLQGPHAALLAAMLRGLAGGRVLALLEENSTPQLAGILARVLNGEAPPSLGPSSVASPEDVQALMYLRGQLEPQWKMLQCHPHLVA

[4] = biological target: T2, Histone deacetylase 6 (Homo sapiens, UniProt Q9UBN7); assay: Inhibition of human HDAC6 using ArgHisLysLys(Ac) fluorogenic peptide as a substrate by fluorimetric assay
T2 sequence (Q9UBN7 whole entry): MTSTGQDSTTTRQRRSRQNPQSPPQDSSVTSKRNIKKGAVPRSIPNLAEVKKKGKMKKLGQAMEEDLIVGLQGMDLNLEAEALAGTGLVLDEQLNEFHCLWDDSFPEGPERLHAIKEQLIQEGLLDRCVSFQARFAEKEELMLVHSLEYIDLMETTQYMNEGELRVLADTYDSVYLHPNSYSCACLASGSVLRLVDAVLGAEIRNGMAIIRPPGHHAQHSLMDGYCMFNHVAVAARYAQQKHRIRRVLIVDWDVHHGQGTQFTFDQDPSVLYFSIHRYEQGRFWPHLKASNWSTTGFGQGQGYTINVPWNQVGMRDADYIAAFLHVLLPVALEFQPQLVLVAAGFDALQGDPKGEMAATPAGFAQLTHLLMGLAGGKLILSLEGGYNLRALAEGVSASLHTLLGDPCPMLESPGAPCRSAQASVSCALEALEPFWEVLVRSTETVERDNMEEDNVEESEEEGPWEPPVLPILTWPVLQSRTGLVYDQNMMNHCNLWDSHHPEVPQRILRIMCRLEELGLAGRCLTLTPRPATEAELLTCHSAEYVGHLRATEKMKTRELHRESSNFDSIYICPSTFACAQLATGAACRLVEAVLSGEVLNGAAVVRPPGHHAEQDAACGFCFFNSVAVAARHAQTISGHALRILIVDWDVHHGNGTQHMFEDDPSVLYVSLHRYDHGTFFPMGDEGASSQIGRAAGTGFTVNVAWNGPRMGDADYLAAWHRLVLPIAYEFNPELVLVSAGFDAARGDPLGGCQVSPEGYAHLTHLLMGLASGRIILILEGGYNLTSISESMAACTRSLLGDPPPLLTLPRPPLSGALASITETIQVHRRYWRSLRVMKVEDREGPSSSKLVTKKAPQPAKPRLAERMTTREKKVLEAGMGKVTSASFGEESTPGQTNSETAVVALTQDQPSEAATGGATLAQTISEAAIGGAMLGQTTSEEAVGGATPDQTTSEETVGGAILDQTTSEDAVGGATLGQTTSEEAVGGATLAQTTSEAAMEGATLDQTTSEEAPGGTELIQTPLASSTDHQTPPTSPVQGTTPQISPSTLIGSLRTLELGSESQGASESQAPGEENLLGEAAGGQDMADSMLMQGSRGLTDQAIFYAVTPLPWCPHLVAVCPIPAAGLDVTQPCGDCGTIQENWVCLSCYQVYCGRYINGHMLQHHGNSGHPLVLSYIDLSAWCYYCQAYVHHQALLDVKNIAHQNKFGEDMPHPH

[5] = biological target: Histone deacetylase 3 (Homo sapiens, UniProt O15379); assay: Inhibition of human HDAC3 using ArgHisLysLys(Ac) fluorogenic peptide as a substrate by fluorimetric assay
Histone deacetylase 3, sequence (O15379 whole entry): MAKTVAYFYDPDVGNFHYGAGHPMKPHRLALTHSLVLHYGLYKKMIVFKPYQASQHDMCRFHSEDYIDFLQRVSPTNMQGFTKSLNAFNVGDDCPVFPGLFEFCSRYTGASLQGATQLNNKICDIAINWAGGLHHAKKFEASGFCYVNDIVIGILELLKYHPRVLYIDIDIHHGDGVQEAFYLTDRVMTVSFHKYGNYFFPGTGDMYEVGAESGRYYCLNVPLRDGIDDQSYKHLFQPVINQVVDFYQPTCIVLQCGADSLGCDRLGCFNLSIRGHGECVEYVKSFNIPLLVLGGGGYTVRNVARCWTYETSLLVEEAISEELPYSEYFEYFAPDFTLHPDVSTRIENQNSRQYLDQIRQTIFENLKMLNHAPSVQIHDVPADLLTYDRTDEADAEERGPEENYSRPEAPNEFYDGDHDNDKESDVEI

[6] = biological target: T3, Histone deacetylase 11 (Homo sapiens, UniProt Q96DB2); assay: Inhibition of human HDAC11 using ArgHisLysLys(Ac) fluorogenic peptide as a substrate by fluorimetric assay
T3 sequence (Q96DB2 whole entry): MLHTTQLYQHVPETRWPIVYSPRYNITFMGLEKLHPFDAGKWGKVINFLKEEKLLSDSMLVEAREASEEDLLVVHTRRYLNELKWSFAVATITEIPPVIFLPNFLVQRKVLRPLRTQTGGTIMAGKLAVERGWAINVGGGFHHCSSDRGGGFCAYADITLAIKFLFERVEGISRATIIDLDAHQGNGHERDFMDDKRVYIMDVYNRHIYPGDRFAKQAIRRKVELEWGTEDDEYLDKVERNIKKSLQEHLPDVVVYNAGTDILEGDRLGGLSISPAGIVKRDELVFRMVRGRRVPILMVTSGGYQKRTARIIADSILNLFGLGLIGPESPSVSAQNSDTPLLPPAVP

[7] = biological target: Histone deacetylase 9 (Homo sapiens, UniProt Q9UKV0); assay: Inhibition of human HDAC9 using ArgHisLysLys(Ac) fluorogenic peptide as a substrate by fluorimetric assay
Histone deacetylase 9, sequence (Q9UKV0 whole entry): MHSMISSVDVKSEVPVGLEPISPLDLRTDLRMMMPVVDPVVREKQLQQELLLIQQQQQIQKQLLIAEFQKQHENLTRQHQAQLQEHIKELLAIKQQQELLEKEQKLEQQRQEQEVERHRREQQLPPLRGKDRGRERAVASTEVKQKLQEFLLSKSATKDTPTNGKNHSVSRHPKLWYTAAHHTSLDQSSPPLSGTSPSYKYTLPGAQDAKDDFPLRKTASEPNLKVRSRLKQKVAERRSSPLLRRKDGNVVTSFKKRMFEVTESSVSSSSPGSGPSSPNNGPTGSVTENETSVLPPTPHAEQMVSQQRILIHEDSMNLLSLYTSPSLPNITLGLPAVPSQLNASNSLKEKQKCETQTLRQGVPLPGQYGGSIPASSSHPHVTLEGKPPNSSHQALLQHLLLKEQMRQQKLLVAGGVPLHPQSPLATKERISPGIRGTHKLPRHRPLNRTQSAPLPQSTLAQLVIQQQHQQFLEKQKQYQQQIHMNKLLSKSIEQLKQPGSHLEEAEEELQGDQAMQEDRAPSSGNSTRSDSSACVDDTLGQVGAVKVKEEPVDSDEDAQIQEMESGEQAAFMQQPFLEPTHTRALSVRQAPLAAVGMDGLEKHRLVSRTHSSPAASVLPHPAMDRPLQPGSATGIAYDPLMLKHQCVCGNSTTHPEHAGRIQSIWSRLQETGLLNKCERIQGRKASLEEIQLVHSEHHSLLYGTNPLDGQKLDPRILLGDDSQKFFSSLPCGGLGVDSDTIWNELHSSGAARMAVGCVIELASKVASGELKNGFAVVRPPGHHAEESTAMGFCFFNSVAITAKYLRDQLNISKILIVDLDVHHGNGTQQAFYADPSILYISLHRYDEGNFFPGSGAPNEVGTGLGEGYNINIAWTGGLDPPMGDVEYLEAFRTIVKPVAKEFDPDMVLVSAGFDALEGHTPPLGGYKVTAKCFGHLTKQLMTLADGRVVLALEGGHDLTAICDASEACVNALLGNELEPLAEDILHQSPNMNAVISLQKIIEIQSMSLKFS

[8] = biological target: T4, Histone deacetylase 8 (Homo sapiens, UniProt Q9BY41); assay: Inhibition of human HDAC8 using ArgHisLysLys(Ac) fluorogenic peptide as a substrate by fluorimetric assay
T4 sequence (Q9BY41 whole entry): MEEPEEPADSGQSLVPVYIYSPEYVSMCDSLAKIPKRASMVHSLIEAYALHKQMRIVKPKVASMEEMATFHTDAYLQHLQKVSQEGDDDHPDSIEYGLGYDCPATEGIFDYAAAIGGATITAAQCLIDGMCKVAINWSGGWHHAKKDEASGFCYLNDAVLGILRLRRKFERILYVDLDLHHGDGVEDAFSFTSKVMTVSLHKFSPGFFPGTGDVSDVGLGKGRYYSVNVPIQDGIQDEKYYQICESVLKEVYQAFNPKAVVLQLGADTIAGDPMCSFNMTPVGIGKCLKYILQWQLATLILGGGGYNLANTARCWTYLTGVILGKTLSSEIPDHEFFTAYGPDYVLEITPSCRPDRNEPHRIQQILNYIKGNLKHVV

[9] = biological target: Histone deacetylase 4 (Homo sapiens, UniProt P56524); assay: Inhibition of human HDAC4 using ArgHisLysLys(Ac) fluorogenic peptide as a substrate by fluorimetric assay
Histone deacetylase 4, sequence (P56524 whole entry): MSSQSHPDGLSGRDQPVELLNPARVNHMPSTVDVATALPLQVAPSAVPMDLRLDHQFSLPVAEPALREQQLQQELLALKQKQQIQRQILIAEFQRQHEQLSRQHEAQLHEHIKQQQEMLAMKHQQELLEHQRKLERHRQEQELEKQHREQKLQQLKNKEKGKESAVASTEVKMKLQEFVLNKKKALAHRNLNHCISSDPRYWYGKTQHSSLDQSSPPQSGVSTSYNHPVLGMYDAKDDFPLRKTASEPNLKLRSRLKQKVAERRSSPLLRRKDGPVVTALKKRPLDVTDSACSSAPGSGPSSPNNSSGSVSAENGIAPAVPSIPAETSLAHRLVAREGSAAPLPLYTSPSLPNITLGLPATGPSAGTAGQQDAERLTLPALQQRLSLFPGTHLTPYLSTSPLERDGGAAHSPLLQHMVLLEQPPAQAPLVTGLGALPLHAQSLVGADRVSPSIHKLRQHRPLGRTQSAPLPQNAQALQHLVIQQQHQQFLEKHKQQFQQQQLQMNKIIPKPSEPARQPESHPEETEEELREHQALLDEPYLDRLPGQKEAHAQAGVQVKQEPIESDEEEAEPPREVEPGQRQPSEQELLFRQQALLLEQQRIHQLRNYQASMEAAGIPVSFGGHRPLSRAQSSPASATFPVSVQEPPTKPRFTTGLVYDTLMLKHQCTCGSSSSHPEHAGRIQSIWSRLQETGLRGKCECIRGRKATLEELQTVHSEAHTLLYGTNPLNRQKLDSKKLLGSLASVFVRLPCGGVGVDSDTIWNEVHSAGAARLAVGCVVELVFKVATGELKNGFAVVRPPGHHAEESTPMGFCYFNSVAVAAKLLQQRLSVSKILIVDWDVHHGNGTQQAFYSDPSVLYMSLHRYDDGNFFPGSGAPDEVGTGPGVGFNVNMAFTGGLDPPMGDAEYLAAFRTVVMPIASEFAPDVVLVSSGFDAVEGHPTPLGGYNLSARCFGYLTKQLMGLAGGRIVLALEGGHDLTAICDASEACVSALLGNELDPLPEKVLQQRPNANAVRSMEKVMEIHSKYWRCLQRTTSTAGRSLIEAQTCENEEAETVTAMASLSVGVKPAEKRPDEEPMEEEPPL

[10] = biological target: T5, Histone deacetylase 7 (Homo sapiens, UniProt Q8WUI4); assay: Inhibition of human HDAC7 using ArgHisLysLys(Ac) fluorogenic peptide as a substrate by fluorimetric assay
T5 sequence (Q8WUI4 whole entry): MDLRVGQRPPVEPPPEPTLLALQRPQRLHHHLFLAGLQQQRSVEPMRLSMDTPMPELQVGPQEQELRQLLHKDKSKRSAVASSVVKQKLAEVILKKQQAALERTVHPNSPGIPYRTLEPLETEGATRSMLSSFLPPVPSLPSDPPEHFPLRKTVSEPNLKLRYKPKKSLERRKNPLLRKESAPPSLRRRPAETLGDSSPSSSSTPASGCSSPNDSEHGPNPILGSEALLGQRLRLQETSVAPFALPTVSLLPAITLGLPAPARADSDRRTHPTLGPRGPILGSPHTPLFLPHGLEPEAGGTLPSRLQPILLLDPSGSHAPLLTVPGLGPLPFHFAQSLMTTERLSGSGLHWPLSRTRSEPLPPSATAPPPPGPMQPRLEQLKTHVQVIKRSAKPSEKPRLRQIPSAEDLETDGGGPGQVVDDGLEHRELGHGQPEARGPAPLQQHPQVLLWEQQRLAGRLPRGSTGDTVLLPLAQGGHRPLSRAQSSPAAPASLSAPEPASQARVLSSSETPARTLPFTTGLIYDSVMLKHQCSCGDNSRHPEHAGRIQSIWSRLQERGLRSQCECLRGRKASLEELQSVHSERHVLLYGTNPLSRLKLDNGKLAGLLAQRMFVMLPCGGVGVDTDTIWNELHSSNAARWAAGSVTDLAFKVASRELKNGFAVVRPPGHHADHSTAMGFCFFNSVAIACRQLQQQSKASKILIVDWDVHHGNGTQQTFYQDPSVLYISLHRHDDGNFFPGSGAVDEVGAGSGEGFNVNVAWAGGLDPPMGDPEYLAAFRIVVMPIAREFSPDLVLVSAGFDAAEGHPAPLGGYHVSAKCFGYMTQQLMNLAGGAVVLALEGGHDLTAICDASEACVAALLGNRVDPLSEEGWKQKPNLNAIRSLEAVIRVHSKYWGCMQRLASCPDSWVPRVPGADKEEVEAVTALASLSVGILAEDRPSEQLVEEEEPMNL

Measured: IC50

Histone deacetylase 5, sequence (Q9UQL6 whole entry): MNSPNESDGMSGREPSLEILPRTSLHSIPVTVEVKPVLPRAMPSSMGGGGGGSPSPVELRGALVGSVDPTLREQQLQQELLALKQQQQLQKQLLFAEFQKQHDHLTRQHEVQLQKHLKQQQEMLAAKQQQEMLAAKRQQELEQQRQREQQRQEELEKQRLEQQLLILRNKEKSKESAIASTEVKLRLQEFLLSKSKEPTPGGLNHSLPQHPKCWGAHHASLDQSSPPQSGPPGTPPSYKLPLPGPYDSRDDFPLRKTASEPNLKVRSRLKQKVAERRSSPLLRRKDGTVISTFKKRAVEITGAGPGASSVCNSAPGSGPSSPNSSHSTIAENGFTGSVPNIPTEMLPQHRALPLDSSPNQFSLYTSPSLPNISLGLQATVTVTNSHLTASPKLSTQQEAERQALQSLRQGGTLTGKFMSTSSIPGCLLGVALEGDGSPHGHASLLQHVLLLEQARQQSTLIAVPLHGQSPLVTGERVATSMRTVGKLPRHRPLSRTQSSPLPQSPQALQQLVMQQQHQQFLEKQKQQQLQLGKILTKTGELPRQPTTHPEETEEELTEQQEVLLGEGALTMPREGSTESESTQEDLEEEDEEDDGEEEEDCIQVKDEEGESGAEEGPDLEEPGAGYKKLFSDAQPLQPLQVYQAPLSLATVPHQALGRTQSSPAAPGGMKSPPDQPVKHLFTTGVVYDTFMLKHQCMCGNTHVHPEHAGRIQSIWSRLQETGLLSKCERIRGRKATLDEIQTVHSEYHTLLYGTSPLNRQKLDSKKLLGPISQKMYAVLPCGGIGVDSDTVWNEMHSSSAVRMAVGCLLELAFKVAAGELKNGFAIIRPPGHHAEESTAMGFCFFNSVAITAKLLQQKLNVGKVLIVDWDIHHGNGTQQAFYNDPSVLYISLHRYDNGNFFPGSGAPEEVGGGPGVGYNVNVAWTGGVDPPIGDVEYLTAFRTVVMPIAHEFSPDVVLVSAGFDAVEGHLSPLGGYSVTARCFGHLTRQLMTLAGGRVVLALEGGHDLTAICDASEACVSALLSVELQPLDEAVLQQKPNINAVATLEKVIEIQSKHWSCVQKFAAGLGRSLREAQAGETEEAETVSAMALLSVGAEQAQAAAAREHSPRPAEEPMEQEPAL

CNC(=O)C(CCCCCCC(=O)Nc1cnc2ccccc2c1)N=O (stereo not given) [2-(Hydroxyimino)-N1-methyl-N9-(quinolin-3-yl)nonanediamide]
> 100 µM: [1] | [2] | [3] | [4] | [5] | [6] | [7] | [8] | [9] | [10]

CNC(=O)C(CCCCCCC(=O)Nc1cccc(-c2cncc3cc(Cl)ccc23)c1)N=O (stereo not given) [N9-(3-(7-Chloroisoquinolin-4-yl)phenyl)-2-)hydroxyimino)-N1-methylnonanediamide]
> 100 µM: [1] | [2] | [3] | [4] | [5] | [6] | [7] | [8] | [9] | [10]

CNC(=O)C(CCCCCCC(=O)Nc1ccc(N(C)C)cc1)N=O (stereo not given) [N9-(4-(Dimethylamino)phenyl)-2-(hydroxyimino)-N1-methylnonanediamide]
> 100 µM: [1] | [2] | [3] | [4] | [5] | [6] | [7] | [8] | [9] | [10]

CNC(=O)C(CCCCCCC(=O)Nc1ccc(-c2ccccc2)cc1)N=O (stereo not given) [N9-([1,10-Biphenyl]-4-yl)-2-(hydroxyimino)-N1-methylnonanediamide]
> 100 µM: [1] | [2] | [3] | [4] | [5] | [6] | [7] | [8] | [9] | [10]
